Reference: US20260258022A1, “NOVEL HETEROCYCLIC-SUBSTITUTED PYRIMIDINE DERIVATIVE EXHIBITING CANCER CELL GROWTH INHIBITORY EFFECT, AND PHARMACEUTICAL COMPOSITION CONTAINING SAME” (ONCOBIX CO., LTD., priority 2021, published 2026)

What was measured:
H2228 (EML4-ALK v3) = experiment: Cancer cell growth inhibition, MTT assay, H2228; format: cell-based; conditions: Homo sapiens, NCI-H2228, 72 hours incubation
Protocol: (§1) The growth inhibitory effects of the compounds in Examples 3, 7, and 8 above on ALK mutant cancer cell lines were measured. Anticancer efficacy activity was measured using H3122 (EML4-ALK v1) and H2228 (EML4-ALK v3) as ALK mutant cell lines by the following method.
(§2) 2×10^5 cells were seeded in a 96-well plate. 24 hours later, each of the compounds in Examples 3, 7, and 8 was treated in a dose-dependent manner, incubated for 72 hours, reacted with 15 uL MTT reagent for 4 hours, and then 100 uL 10% SDS was added thereto and incubated for 24 hours. The change in final OD was read at 595 nm. To analyze the MTT results, IC50 values were measured using prism software.
(§3) APG-2449 was used as a control drug.

H3122 (EML4-ALK v1) = experiment: Cancer cell growth inhibition, MTT assay, H3122; format: cell-based; conditions: Homo sapiens, NCI-H3122, 72 hours incubation
Protocol: as §1, §2, §3

ALK(L1196M) = ALK(L1196M) (Homo sapiens, UniProt Q9UM73, L1196M); experiment: Kinase inhibitory activity, [33P]-ATP filter assay, ALK(L1196M); format: biochemical; conditions: ALK point mutant kinase, scintillation counting
Protocol: (§4) For the compounds of Examples 1 to 8 above, the inhibitory activity against ALK, ALK mutation (ALK(G1202R)), and […] (ALK(L1196M)) was measured, and the results are shown in Table 1 below. […] Crizotinib […] was used as a control drug. • 1. Each kinase was incubated under 8 mM MOPS, pH 7.0, 0.2 mM EDTA, 250 μM KKKGQEEEYVFIE, 1 mM sodium orthovanadate, 5 mM sodium-6-glycerophosphate, 10 mM Magnesium acetate, [^33P]-ATP. • 2. The reaction proceeded by adding the evaluation compound (DMSO solution) and Mg/ATP. • 3. After about 40 minutes at room temperature, the reaction was terminated by adding 10 μL of 0.5% phosphoric acid. • 4. The reaction solution was divided into 0.5% 10 μL and spotted on a P30 filtermat. • 5. It was washed four times with 0.425% phosphoric acid for about 4 minutes. After washing once with methanol, it was dried and analyzed by scintillation counting to measure the IC50 value.

ALK(G1202R) = ALK(G1202R) (Homo sapiens, UniProt Q9UM73, G1202R); experiment: Kinase inhibitory activity, [33P]-ATP filter assay, ALK(G1202R); format: biochemical; conditions: ALK point mutant kinase, scintillation counting
Protocol: as §4

ALK = ALK (Homo sapiens, UniProt Q9UM73); experiment: Kinase inhibitory activity, [33P]-ATP filter assay, ALK; format: biochemical; conditions: wild-type ALK kinase, scintillation counting
Protocol: as §4

Sequence of ALK(G1202R) (Q9UM73 19-1620 G1202R): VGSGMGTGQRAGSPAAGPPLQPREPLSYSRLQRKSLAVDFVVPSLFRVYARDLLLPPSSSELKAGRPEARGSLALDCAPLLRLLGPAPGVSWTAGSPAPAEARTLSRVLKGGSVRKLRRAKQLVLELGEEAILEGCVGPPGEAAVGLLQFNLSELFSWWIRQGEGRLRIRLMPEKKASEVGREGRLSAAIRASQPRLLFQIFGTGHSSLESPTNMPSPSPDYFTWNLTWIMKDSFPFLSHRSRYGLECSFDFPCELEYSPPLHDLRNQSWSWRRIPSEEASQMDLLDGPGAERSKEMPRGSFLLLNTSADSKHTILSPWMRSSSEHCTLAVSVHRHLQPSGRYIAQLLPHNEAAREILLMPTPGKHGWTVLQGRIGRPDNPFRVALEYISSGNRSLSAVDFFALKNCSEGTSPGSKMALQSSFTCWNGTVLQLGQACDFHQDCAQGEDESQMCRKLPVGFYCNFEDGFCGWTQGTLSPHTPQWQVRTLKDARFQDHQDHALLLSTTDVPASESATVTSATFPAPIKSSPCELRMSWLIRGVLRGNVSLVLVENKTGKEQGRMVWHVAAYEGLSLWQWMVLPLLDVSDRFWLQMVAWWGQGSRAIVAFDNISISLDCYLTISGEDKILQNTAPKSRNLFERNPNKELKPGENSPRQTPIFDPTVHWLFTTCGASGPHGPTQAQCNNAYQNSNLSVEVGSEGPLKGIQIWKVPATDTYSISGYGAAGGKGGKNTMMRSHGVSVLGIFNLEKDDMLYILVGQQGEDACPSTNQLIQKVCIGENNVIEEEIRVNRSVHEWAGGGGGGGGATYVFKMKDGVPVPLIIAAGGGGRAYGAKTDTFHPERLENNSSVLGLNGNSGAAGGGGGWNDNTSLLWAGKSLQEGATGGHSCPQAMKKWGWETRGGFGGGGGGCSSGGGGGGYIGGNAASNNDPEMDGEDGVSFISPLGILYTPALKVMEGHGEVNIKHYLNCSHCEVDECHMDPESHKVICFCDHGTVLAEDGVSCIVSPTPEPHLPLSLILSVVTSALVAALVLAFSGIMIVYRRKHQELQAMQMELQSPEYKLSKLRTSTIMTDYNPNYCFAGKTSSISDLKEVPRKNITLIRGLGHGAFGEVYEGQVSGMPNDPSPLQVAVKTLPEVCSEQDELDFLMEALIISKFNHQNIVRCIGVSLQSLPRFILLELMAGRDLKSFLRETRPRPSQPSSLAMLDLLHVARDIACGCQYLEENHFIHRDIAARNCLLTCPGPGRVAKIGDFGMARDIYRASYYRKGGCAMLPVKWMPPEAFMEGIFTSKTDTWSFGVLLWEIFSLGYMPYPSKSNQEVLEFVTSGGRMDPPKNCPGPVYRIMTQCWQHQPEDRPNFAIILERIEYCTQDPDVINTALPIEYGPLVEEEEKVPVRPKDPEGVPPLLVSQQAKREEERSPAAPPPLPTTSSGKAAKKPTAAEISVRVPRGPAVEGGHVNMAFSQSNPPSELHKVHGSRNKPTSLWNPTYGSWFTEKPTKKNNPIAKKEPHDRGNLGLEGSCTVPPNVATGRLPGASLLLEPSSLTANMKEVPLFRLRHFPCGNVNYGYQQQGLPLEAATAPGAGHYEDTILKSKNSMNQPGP
Sequence of ALK (Q9UM73 19-1620): as the sequence (Q9UM73 19-1620 G1202R) above, with R1184G counted along it
Sequence of ALK(L1196M) (Q9UM73 19-1620 L1196M): as the sequence (Q9UM73 19-1620 G1202R) above, with L1178M, R1184G counted along it

SMILES | IC50 (H2228 (EML4-ALK v3)) [nM] | IC50 (H3122 (EML4-ALK v1)) [nM] | IC50 (ALK(L1196M)) [nM] | IC50 (ALK(G1202R)) [nM] | IC50 (ALK) [nM]
Cc1cc(Nc2ncc(Cl)c(Nc3ccccc3S(=O)(=O)C(C)C)n2)c(OC(C)C)cc1C1=CCN(C2CCOCC2)CC1 [APG-2449, reference compound] | 62.9 | 87.8 | 0.9 | > 1000 | 0.8
Cc1cc(Nc2ncc(Cl)c(Nc3ccccc3N(C)S(C)(=O)=O)n2)c(OC(C)C)cc1C1=CCN(C2CCOCC2)CC1 [Example 1, N-(2-((5-chloro-2-((2-isopropoxy-5-methyl-4-(1-(tetrahydro-2H-pyran-4-yl)-1,2,3,6-tetrahydropyridin-4-yl)phenyl)amino)pyrimidin-4-yl)amino)phenyl)-N-methylmethanesulfonamide] | – | – | 0.2 | 17.8 | 1.1
Cc1cc(Nc2ncc(Cl)c(Nc3ccccc3NS(C)(=O)=O)n2)c(OC(C)C)cc1C1=CCN(C2CCOCC2)CC1 [Example 2, N-(2-((5-chloro-2-((2-isopropoxy-5-methyl-4-(1-(tetrahydro-2H-pyran-4-yl)-1,2,3,6-tetrahydropyridin-4-yl)phenyl)amino)pyrimidin-4-yl)amino)phenyl)methanesulfonamide] | – | – | 0.6 | 25.8 | 1.8
Cc1cc(Nc2ncc(Cl)c(Nc3ccccc3N(C)S(=O)(=O)C(C)C)n2)c(OC(C)C)cc1C1=CCN(C2CCOCC2)CC1 [Example 4, N-(2-((5-chloro-2-((2-isopropoxy-5-methyl-4-(1-(tetrahydro-2H-pyran-4-yl)-1,2,3,6-tetrahydropyridin-4-yl)phenyl)amino)pyrimidin-4-yl)amino)phenyl)-N-methylpropane-2-sulfonamide] | – | – | 0.3 | 161 | 0.9
Cc1cc(Nc2ncc(Cl)c(Nc3ccccc3N(C3CC3)S(C)(=O)=O)n2)c(OC(C)C)cc1C1=CCN(C2CCOCC2)CC1 [Example 5, N-(2-((5-chloro-2-((2-isopropoxy-5-methyl-4-(1-(tetrahydro-2H-pyran-4-yl)-1,2,3,6-tetrahydropyridin-4-yl)phenyl)amino)pyrimidin-4-yl)amino)phenyl)-N-cyclopropylmethanesulfonamide] | – | – | 0.5 | 153 | 3.1
Cc1cc(Nc2ncc(Cl)c(Nc3ccccc3N(C(C)C)S(C)(=O)=O)n2)c(OC(C)C)cc1C1=CCN(C2CCOCC2)CC1 [Example 6, N-(2-((5-chloro-2-((2-isopropoxy-5-methyl-4-(1-(tetrahydro-2H-pyran-4-yl)-1,2,3,6-tetrahydropyridin-4-yl)phenyl)amino)pyrimidin-4-yl)amino)phenyl)-N-isopropylmethanesulfonamide] | – | – | 6.7 | 254 | 0.6

These reach a lower IC50 (ALK(L1196M)). Values come first.

IC50 (H2228 (EML4-ALK v3)) [nM] | IC50 (H3122 (EML4-ALK v1)) [nM] | IC50 (ALK(L1196M)) [nM] | IC50 (ALK(G1202R)) [nM] | IC50 (ALK) [nM] | SMILES
20.8 | 22.1 | 0.07 | 17.8 | 0.6 | Cc1cc(Nc2ncc(Cl)c(Nc3ccccc3N(C)S(N)(=O)=O)n2)c(OC(C)C)cc1C1=CCN(C2CCOCC2)CC1 [Example 8]
43.1 | 31.9 | 0.05 | 0.7 | 0.6 | Cc1cc(Nc2ncc(Cl)c(Nc3ccccc3N(C)S(=O)(=O)C3CC3)n2)c(OC(C)C)cc1C1=CCN(C2CCOCC2)CC1 [Example 3, N-(2-((5-chloro-2-((2-isopropoxy-5-methyl-4-(1-(tetrahydro-2H-pyran-4-yl)-1,2,3,6-tetrahydropyridin-4-yl)phenyl)amino)pyrimidin-4-yl)amino)phenyl)-N-methylcyclopropanesulfonamide]
16.8 | 39.1 | 0.05 | 10.5 | 0.5 | Cc1cc(Nc2ncc(Cl)c(Nc3ccccc3N(C)S(C)(=O)=O)n2)c(OCC(F)(F)F)cc1C1=CCN(C2CCOCC2)CC1 [Example 7, N-(2-((5-chloro-2-((5-methyl-4-(1-(tetrahydro-2H-pyran-4-yl)-1,2,3,6-tetrahydropyridin-4-yl)-2-(2,2,2-trifluoroethoxy)phenyl)amino)pyrimidin-4-yl)amino)phenyl)-N-methylmethanesulfonamide]
